Legend:
Type in all cases: cell-based
[1] = tested on: Kasumi-1 line; experiment: MTS cell proliferation and viability test, Kasumi-1 line; settings: Homo sapiens, Kasumi-1 leukaemia line, 72 hours of incubation, read-out: IC50 (50% loss of cell proliferation and cell viability)
Experimental: […]
(§1) The cell proliferation and viability were determined in a test using 3-(4,5-dimethylthiazol-2-yl)-5-(3-carboxymethoxyphenyl)-2-(4-sulphophenyl)-2H-tetrazolium (MTS) according to Fujishita T. et al., Oncology, 2003, 64 (4), 399-406. In this test, the mitochondrial ability of the live cells to convert MTS to a coloured compound is measured after 72 hours of incubation of a compound of formula (I) according to the invention. […]

[2] = tested on: KG-1a line; experiment: MTS cell proliferation and viability test, KG-1a line; settings: Homo sapiens, KG-1a leukaemia line, 72 hours of incubation, read-out: IC50 (50% loss of cell proliferation and cell viability)
Experimental: […]
as §1

[3] = tested on: K-562 line; experiment: MTS cell proliferation and viability test, K-562 line; settings: Homo sapiens, K562, K-562 leukaemia line, 72 hours of incubation, read-out: IC50 (50% loss of cell proliferation and cell viability)
Experimental: The compounds of formula (I) according to the present invention were tested in vitro on a panel of tumour lines of human origin, originating: • from breast cancer: MDA-MB231 (American Type culture collection, Rockville, Md., USA, ATCC-HTB26), MDA-A1 or MDA-ADR (called multi-drug resistant MDR line, and described by E. Collomb et al., in Cytometry, 12(1):15-25, 1991), and MCF7 (ATCC-HTB22), • from prostate cancer: DU145 (ATCC-HTB81) and PC3 (ATCC-CRL1435), • from colon cancer: HCT116 (ATCC-CCL247) and HCT15 (ATCC-CCL225), • from lung cancer: H460 (described by Carmichael in Cancer Research 47 (4):936-942, 1987 and provided by the National Cancer Institute, Frederick Cancer Research and Development Center, Frederick, Md., USA), • from glioblastoma: SF268 (described by Westphal in Biochemical & Biophysical Research Communications 132 (1): 284-289, 1985 and provided by the National Cancer Institute, Frederick Cancer Research and Development Center, Frederick, Md., USA), • from leukaemia: CMLT1 (described by Kuriyama et al. in Blood, 74: 1989, 1381-1387, by Soda et al. in British Journal of Haematology, 59: 1985, 671-679 and by Drexler, in Leukemia Research, 18: 1994, 919-927 and provided by the company DSMZ (Deutsche Sammlung von Mikroorganismen und Zellkulturen GmbH) Mascheroder Weg 1b, 38124 Braunschweig, Germany), K-562 (described by Lozzio et al., J Natl Cancer Inst 50: 535 (1973), by Lozzio et al., Blood 45: 321 (1975), and provided by DSMZ No. ACC 10), KG-1a (described by Koeffler et al., Blood 56: 265 (1980), and provided by DSMZ No. ACC 421), and Kasumi-1 (described by Asou et al., Blood 77: 2031 (1991), and provided by DSMZ No. ACC 220).
The cell proliferation and viability were determined in a test using 3-(4,5-dimethylthiazol-2-yl)-5-(3-carboxymethoxyphenyl)-2-(4-sulphophenyl)-2H-tetrazolium (MTS) according to Fujishita T. et al., Oncology, 2003, 64 (4), 399-406. In this test, the mitochondrial ability of the live cells to convert MTS to a coloured compound is measured after 72 hours of incubation of a compound of formula (I) according to the invention. The concentrations of compound according to the invention which result in a 50% loss of cell proliferation and cell viability (IC50) are between 1 nM and 10 μM, depending on the tumor line and the compound tested. For example, compound No. 1 has an IC50 of 40 nM on the K-562 line, an IC50 of 50 nM on the KG-1a line and an IC50 of 40 nM on the Kasumi-1 line.

[4] = tested on: SF268; experiment: MTS cell proliferation and viability test, SF268 line; settings: Homo sapiens, SF-268, SF268 glioblastoma line, 72 hours of incubation, read-out: IC50 (50% loss of cell proliferation and cell viability)
Experimental: […]
as §1

Compound | IC50 [3] | IC50 [1] | IC50 [2] | IC50 [4]
CCN(CC)Cc1cc2cc(Nc3ncc4cc(-c5c(Cl)cccc5Cl)c(NC(=O)NC(C)(C)C)nc4n3)ccc2o1 [Compound No. 5, N-[6-(2,6-dichlorophenyl)-2-[[2-[(diethylamino)methyl]-5-benzofuranyl]amino]pyrido[2,3-d]pyrimidin-7-yl]-N′-(1,1-dimethylethyl)urea] | 5 nM | – | – | –
CC(C)(C)NC(=O)Nc1nc2nc(Nc3ccc4oc(CN)nc4c3)ncc2cc1-c1c(Cl)cccc1Cl [Compound No. 7, N-[2-[[2-(aminomethyl)-5-benzoxazolyl]amino]-6-(2,6-dichlorophenyl)pyrido[2,3-d]pyrimidin-7-yl]-N′-(1,1-dimethylethyl)urea] | – | – | – | 43 nM

More lines, main results first:

IC50 [3] | Compound | IC50 [1] | IC50 [2] | IC50 [4]
40 nM | CC(C)(C)NC(=O)Nc1nc2nc(Nc3ccc4nsnc4c3)ncc2cc1-c1c(Cl)cccc1Cl [Compound No. 1, N-[2-(2,1,3-benzothiadiazol-5-ylamino)-6-(2,6-dichlorophenyl)pyrido[2,3-d]pyrimidin-7-yl]-N′-(1,1-dimethylethyl)urea] | 40 nM | 50 nM | –
19 nM | CC(C)(C)NC(=O)Nc1nc2nc(Nc3ccc4ncnn4c3)ncc2cc1-c1c(Cl)cccc1Cl [Compound No. 9, N-[6-(2,6-dichlorophenyl)-2-([1,2,4]triazolo[1,5-a]pyridin-6-ylamino)pyrido[2,3-d]pyrimidin-7-yl]-N′-(1,1-dimethylethyl)urea] | – | – | –
74 nM | CCNC(=O)Nc1nc2nc(Nc3ccc4nsnc4c3)ncc2cc1-c1c(Cl)cccc1Cl [Compound No. 13, N-[2-(2,1,3-benzothiadiazol-5-ylamino)-6-(2,6-dichlorophenyl)pyrido[2,3-d]pyrimidin-7-yl]-N′-ethylurea] | – | – | –
